From ChEMBL document CHEMBL1126300, “Quinoline antifolate thymidylate synthase inhibitors: variation of the C2- and C4-substituents” (J Med Chem, 1992) come the findings set out here.

The target in one test is Thymidylate synthase (Mus musculus, UniProt P07607). The test can be described thus: In vitro inhibitory activity against thymidylate synthase from L1210 mouse leukemia cells. Format: cell-based.
The subject of a further test is L1210. The test is described as follows: In vitro inhibition of L1210 mouse leukemia cell growth in culture. Format: functional, cell-based.
The next test has as its system WIL2. The test can be described thus: Inhibition of human derived cell line W1-L2 cell proliferation. Format: functional, cell-based.

Sequence of Thymidylate synthase (P07607 whole entry): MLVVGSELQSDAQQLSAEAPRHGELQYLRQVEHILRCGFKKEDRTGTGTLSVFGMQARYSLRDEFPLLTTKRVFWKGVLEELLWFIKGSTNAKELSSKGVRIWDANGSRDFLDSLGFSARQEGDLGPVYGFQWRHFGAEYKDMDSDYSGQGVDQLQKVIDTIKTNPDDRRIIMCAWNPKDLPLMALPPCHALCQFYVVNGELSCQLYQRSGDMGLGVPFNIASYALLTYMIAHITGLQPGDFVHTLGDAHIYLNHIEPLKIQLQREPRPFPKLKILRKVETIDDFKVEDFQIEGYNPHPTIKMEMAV

Usually IC50 stands for the concentration that gives 50% inhibition. High values mean lower potency, low ones higher potency. Consider `C#CCN(Cc1ccc2nc(Cl)ccc2c1)c1ccc(C(=O)N[C@@H](CCC(=O)O)C(=O)O)cc1`, for which the IC50 on Thymidylate synthase is 2.6 µM; in the test with L1210, above 100 µM.
Take `C#CCN(Cc1ccc2nc(C)cc(O)c2c1)c1ccc(C(=O)N[C@@H](CCC(=O)O)C(=O)O)cc1`: the values for the IC50 against Thymidylate synthase and in the test on L1210 were 6.3 µM and above 100 µM, respectively.
In the same order, the values of `C#CCN(Cc1ccc2nc(NC(C)=O)cc(Cl)c2c1)c1ccc(C(=O)N[C@@H](CCC(=O)O)C(=O)O)cc1` are 1.2 µM and above 100 µM.
For `C#CCN(Cc1ccc2nc(N)cc(Cl)c2c1)c1ccc(C(=O)N[C@@H](CCC(=O)O)C(=O)O)cc1`, the figures for the IC50 at Thymidylate synthase and in the test on L1210 were 0.096 µM and 11 µM, respectively.
In the test on L1210, `C#CCN(Cc1ccc2nc(C)cc(C)c2c1)c1ccc(C(=O)N[C@@H](CCC(=O)O)C(=O)O)cc1` had an IC50 above 100 µM.
For the molecule `C#CCN(Cc1ccc2nc(OC)cc(Cl)c2c1)c1ccc(C(=O)N[C@@H](CCC(=O)O)C(=O)O)cc1`, the IC50 against Thymidylate synthase was 9 µM; with L1210, above 100 µM.
Regarding `CCN(Cc1ccc2nc(CO)cc(Cl)c2c1)c1ccc(C(=O)N[C@@H](CCC(=O)O)C(=O)O)cc1`, the IC50 at Thymidylate synthase is 1.05 µM; with L1210 it was above 100 µM.
Turning to `C#CCN(Cc1ccc2nc(C)cc(Br)c2c1)c1ccc(C(=O)N[C@@H](CCC(=O)O)C(=O)O)cc1`, the figures for the half-maximal inhibitory concentration (IC50) at Thymidylate synthase and in the test with L1210 were 0.22 µM and 14 µM, respectively.
As to `C#CCN(Cc1ccc2[nH]c(N)nc(=O)c2c1)c1ccc(C(=O)N[C@@H](CCC(=O)O)C(=O)O)cc1`, the IC50 in the test with WIL2 was found to be 0.44 µM.
For `C#CCN(Cc1ccc2nc(CC)cc(Cl)c2c1)c1ccc(C(=O)N[C@@H](CCC(=O)O)C(=O)O)cc1`, the results for the IC50 against Thymidylate synthase and with L1210 were 0.99 µM and above 100 µM, respectively.
On the same counts, the results for `C#CCN(Cc1ccc2nc(C(=O)O)cc(Cl)c2c1)c1ccc(C(=O)N[C@@H](CCC(=O)O)C(=O)O)cc1` are 31 µM and above 100 µM.
As to `C#CCN(Cc1ccc2nc(C)ccc2c1)c1ccc(C(=O)N[C@@H](CCC(=O)O)C(=O)O)cc1`, the results for the half-inhibitory concentration (IC50) against Thymidylate synthase and with L1210 were 7.9 µM and above 100 µM, respectively.
For the molecule `C#CCN(Cc1ccc2nc(N)cc(Cl)c2c1)c1ccc(C(=O)N[C@@H](CCC(=O)O)C(=O)O)c(F)c1`, the IC50 amounted to 0.048 µM at Thymidylate synthase and 2.9 µM in the test on L1210.
`C#CCN(Cc1ccc2nc(C)cc(SC)c2c1)c1ccc(C(=O)N[C@@H](CCC(=O)O)C(=O)O)cc1`: the IC50 on Thymidylate synthase amounted to 8.9 µM; with L1210 it was 100 µM.
Regarding `C#CCN(Cc1ccc2nc(Cl)cc(Cl)c2c1)c1ccc(C(=O)N[C@@H](CCC(=O)O)C(=O)O)cc1`, the IC50 in the test with L1210 was found to be 8 µM.
With `C#CCN(Cc1ccc2nc(C)cc(Cl)c2c1)c1ccc(C(=O)N[C@@H](CCC(=O)O)C(=O)O)cc1`, the results for the IC50 against Thymidylate synthase and with L1210 were 0.25 µM and 8 µM, respectively.
For the molecule `C#CCN(Cc1ccc2nc(CF)cc(Cl)c2c1)c1ccc(C(=O)N[C@@H](CCC(=O)O)C(=O)O)cc1`, the IC50 against Thymidylate synthase is 0.62 µM; in the test on L1210, above 100 µM.
In the case of `CCN(Cc1ccc2nc(N)cc(OC)c2c1)c1ccc(C(=O)N[C@@H](CCC(=O)O)C(=O)O)cc1`, the half-inhibitory concentration (IC50) at Thymidylate synthase was found to be 1.9 µM; in the test on L1210, 100 µM.
As for `C#CCN(Cc1ccc2nc(N)cc(C)c2c1)c1ccc(C(=O)N[C@@H](CCC(=O)O)C(=O)O)cc1`, the IC50 was found to be 0.35 µM against Thymidylate synthase and 4 µM in the test with L1210.
On the same counts, the results for `C#CCN(Cc1ccc2nc(C)cc(OC)c2c1)c1ccc(C(=O)N[C@@H](CCC(=O)O)C(=O)O)cc1` are 6 µM and above 100 µM.
In the same order, the values of `C#CCN(Cc1ccc2nc(C)cc(Br)c2c1)c1ccc(C(=O)N[C@@H](CCC(=O)O)C(=O)O)c(F)c1` are 0.096 µM and 1 µM.
Take `C#CCN(Cc1ccc2nc(Cl)cc(Cl)c2c1)c1ccc(C(=O)N[C@@H](CCC(=O)O)C(=O)O)c(F)c1`: the figures for the IC50 against Thymidylate synthase and in the test with L1210 were 0.023 µM and 1 µM, respectively.
With `Cc1cc(Cl)c2cc(CN(C)c3ccc(C(=O)N[C@@H](CCC(=O)O)C(=O)O)cc3)ccc2n1`, the values for the IC50 at Thymidylate synthase and in the test on L1210 were 2.3 µM and 24 µM, respectively.
In the case of `CCN(Cc1ccc2nccc(Cl)c2c1)c1ccc(C(=O)N[C@@H](CCC(=O)O)C(=O)O)cc1`, the IC50 at Thymidylate synthase was 1.13 µM; in the test on L1210 it was 30 µM.
In turn, `C#CCN(Cc1ccc2nc(Cl)cc(OC)c2c1)c1ccc(C(=O)N[C@@H](CCC(=O)O)C(=O)O)cc1` registered an IC50 against Thymidylate synthase of 0.15 µM.
Take `Cc1cc(Cl)c2cc(CNc3ccc(C(=O)N[C@@H](CCC(=O)O)C(=O)O)cc3)ccc2n1`: the IC50 was 38 µM against Thymidylate synthase and above 100 µM with L1210.
As to `C#CCN(Cc1ccc2nc(C)cc(C#N)c2c1)c1ccc(C(=O)N[C@@H](CCC(=O)O)C(=O)O)cc1`, the IC50 against Thymidylate synthase turned out to be 1.5 µM; in the test with L1210 it was 75 µM.
Consider `C#CCN(Cc1ccc2nc(Cl)cc(C)c2c1)c1ccc(C(=O)N[C@@H](CCC(=O)O)C(=O)O)cc1`, for which the IC50 against Thymidylate synthase is 0.12 µM; in the test with L1210, above 100 µM.
In the case of `C#CCN(Cc1ccc2nc(C)cc(Cl)c2c1)c1ccc(C(=O)N[C@@H](CCC(=O)O)C(=O)O)c(F)c1`, the IC50 against Thymidylate synthase amounted to 0.066 µM; in the test with L1210, 0.42 µM.
Turning to `CCN(Cc1ccc2nc(C)cc(Cl)c2c1)c1ccc(C(=O)N[C@@H](CCC(=O)O)C(=O)O)cc1`, the IC50 at Thymidylate synthase stood at 0.74 µM; in the test with L1210, 23 µM.
As for `C#CCN(Cc1ccc2nc(C(N)=O)cc(Cl)c2c1)c1ccc(C(=O)N[C@@H](CCC(=O)O)C(=O)O)cc1`, the IC50 against Thymidylate synthase was 1.9 µM; in the test with L1210, above 100 µM.
`C#CCN(Cc1ccc2nc(C(F)(F)F)cc(Cl)c2c1)c1ccc(C(=O)N[C@@H](CCC(=O)O)C(=O)O)cc1`: the IC50 against Thymidylate synthase is 0.15 µM; in the test with L1210, above 100 µM.
